{"source": "patent US20050203135A1", "about": "“Antagonists for treatment of CD/11CD18 adhesion receptor mediated disorders” (Genentech, Inc., priority 1998, published 2005)", "key": {"[1]": {"test_system": "HuT 78 cell adhesion to 5dICAM-Ig", "experiment": "Human T-cell adhesion assay (cell attachment assay)", "type": "cell-based", "details": "HuT78", "description": "The T-cell adhesion assay is performed using a human T-lymphoid cell line HuT 78. Goat anti-HuIgG(Fc) was diluted to 2 μg/ml in PBS and 96-well plates were coated with 50 μl/well @ 37° C. for 1 h. Plates were washed with PBS and blocked for 1 h @ room temperature with 1% BSA in PBS. 5 domain ICAM-Ig was diluted to 100 ng/ml in PBS and 50 μl/well was added to the plates O/N @ 4° C. HuT 78 cells were centrifuged at 100 g and the cell pellet was treated with 5 mM EDTA for 5′ at 37° C. in a 5% CO2 incubator. Cells were washed in 0.14M NaCl, 0.02M Hepes, 0.2% Glucose and 0.1 mM MnCl2 (assay buffer) and centrifuged. The cells were resuspended in assay buffer to 3.0×10^6 c/ml. Inhibitors were diluted in assay buffer to a 2× final concentration and pre-incubated with HuT 78 cells for 30′ at room temperature. 100 μl/well of cells and inhibitors were added to the plates and incubated at room temperature for 1 h. 100 μl/well PBS was added and the plates were sealed and centrifuged inverted at 100 g for 5′. Unattached cells were flicked out of the plate and excess PBS was blotted on a paper towel. […] The enzyme reaction was stopped with 90 μl/well 50 mM Glycine/5 mM EDTA and read on a platereader at […]. HUT 78 cell adhesion to 5dICAM-Ig is measured using the p-nitrophenyl n-acetyl-β-D-glucosaminide method of Landegren, U. (1984) J. Immunol. […]"}, "human LFA-1:ICAM-1": {"molecular_target": "T1, human LFA-1:ICAM-1 (Homo sapiens, UniProt P05107+P20701)", "T1 construct": "containing the full-length cDNAs for the aL (CD11a) and b2 (CD18) subunits; made in house", "T1 sequence (P20701 26-1170)": "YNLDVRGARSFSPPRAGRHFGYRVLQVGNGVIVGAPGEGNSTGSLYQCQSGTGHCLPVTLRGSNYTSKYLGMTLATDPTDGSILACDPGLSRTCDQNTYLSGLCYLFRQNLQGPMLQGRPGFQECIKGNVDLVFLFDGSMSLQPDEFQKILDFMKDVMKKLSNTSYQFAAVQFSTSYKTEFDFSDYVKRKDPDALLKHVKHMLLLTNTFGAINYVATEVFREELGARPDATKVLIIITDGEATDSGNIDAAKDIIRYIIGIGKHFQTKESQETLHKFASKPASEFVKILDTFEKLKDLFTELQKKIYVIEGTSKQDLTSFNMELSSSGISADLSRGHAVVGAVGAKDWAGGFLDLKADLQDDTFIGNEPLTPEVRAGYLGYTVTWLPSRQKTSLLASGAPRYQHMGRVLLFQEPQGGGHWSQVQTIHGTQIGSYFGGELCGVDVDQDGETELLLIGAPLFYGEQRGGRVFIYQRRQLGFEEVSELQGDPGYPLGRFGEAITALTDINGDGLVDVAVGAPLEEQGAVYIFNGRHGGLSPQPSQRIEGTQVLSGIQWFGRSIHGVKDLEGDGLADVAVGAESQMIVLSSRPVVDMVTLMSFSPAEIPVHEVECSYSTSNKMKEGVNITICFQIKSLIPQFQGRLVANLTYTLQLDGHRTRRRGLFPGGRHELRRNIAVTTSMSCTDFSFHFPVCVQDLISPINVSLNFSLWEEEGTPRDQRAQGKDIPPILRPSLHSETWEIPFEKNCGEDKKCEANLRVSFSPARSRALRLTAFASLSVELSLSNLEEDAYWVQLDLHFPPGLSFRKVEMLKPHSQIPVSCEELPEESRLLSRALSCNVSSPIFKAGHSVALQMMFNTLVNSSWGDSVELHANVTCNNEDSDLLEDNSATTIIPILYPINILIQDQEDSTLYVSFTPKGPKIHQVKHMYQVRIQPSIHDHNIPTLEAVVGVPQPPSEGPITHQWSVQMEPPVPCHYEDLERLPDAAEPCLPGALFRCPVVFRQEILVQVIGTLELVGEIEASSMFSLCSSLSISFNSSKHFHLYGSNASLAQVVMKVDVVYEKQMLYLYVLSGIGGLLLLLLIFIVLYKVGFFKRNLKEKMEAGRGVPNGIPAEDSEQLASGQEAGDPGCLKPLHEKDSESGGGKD", "T1 sequence (P05107 23-769)": "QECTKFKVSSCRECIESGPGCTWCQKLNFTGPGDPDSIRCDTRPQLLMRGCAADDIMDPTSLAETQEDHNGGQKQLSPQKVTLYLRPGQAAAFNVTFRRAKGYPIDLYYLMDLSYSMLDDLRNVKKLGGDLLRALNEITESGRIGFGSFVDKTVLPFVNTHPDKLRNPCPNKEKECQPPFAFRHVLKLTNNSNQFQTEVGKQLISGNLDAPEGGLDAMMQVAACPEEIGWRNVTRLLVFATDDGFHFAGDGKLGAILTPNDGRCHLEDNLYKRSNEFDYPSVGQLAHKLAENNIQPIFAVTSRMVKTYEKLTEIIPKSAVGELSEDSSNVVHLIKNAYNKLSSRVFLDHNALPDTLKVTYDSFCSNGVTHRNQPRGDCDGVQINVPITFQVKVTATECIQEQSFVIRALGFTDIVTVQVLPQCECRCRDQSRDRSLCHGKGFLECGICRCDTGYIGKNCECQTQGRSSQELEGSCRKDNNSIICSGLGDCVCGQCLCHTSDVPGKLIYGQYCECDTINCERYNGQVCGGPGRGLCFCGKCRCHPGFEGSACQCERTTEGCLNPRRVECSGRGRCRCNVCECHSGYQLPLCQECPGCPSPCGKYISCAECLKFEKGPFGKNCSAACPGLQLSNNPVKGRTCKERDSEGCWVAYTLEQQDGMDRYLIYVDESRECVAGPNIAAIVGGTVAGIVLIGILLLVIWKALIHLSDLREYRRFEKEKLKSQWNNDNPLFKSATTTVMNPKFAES", "experiment": "human LFA-1:ICAM-1 receptor binding assay (format not stated)"}}}
{"molecule": "O=C(N[C@@H](Cc1c[nH]c2ccccc12)C(=O)O)c1ccccc1Br", "note": "[2-Bromobenzoyltryptophan]", "values": [{"measurement": "IC50", "setting": "[1]", "value": "~10", "unit": "µM"}, {"measurement": "IC50", "setting": "human LFA-1:ICAM-1", "value": "~2", "unit": "µM"}]}
